# The supplement of paper PMC11208160
# Experiment: recombinant barcode read abundance after kanamycin selection (control-corrected) (log10(CPM+1)); higher = more efficient recombination; sequences stand for … in AGTGCAGAGAAAATCGGCCAGTTTTCTCTGCCTGCAGTCCGCATGCCGT…AGATTTATGCAGCGGACTGCCTTTCTCCCAAAGTGATAAACCGGACAGTATCATGGACCGGTTTTCCCGGTAATCCGTATTTGCAAGGTTGGTTTCACT; site = the 11-nt target
# Summary of the method: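 Targets and IS621 bridge RNA target-binding loops were paired in oligos, each with a promoter, a barcode and the J23119-driven first 104 bridge RNA bases. A vector carrying the remaining 73 bp and a T7-inducible recombinase received these by Gibson cloning, and the pool was co-electroporated into E. coli with a donor plasmid. Duplicate plates contained chloramphenicol/ampicillin LB agar (control) or chloramphenicol/ampicillin/kanamycin with 0.1 mM IPTG. Recombination efficiency comes from averaged, control-corrected counts per million of recombinant-junction barcodes, reported as log10(CPM+1).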
# 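Also: IS621 recombinase and bridge RNA in Escherichia coli cells.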
row,Sequence,recombinant barcode read abundance (log10)
1,CTTACTACTTGGGTTCTAACCTGTTGCCT (site ATCACTACTAG),0.105
2,CTTACTACTTGGGTTCTAACCTGTTGCCT (site CTTACTACTAG),0.126
3,CTTAGGACTTGGGTTCTAACCTGTTGCCT (site CTTAGGACTAG),0.205
4,CTTAGGACTTGGGTTCTAACCTGTTGCCT (site CTTAGGACTCG),0.0406
5,CTTAGGACTTGGGTTCTAACCTGTTGCCT (site CTTAGGACTGG),0.136
6,CTTAGGACTTGGGTTCTAACCTGTTGCCT (site CTTAGGACTTG),0.0473
7,CTTCAACCTTGGGTTCTAACCTGTTGCCT (site CTTCAACCTAG),1.75
8,CTTCAACCTTGGGTTCTAACCTGTTGCCT (site CTTCACCCTAG),0.215
9,CTTCAACCTTGGGTTCTAACCTGTTGCCT (site CTTCAGCCTAG),0.0746
10,CTTCAACCTTGGGTTCTAACCTGTTGCCT (site CTTCATCCTAG),0.139
11,CTTCACACTTGGGTTCTAACCTGTTGCAT (site CTTCACACTAT),1.7
12,CTTCACACTTGGGTTCTAACCTGTTGCAT (site CTTCACGCTAG),0.316
13,CTTCAGACTTGGGTTCTAACCTGTTGCTA (site CCTCAGACTTC),0.0983
14,CTTCAGACTTGGGTTCTAACCTGTTGCTA (site CTTCAGACTTA),1.43
15,CTTCATTCTTGGGTTCTAACCTGTTGCCT (site CTTCATTCTAG),0.102
16,CTTCATTCTTGGGTTCTAACCTGTTGCCT (site TGCTGGGCTCA),0.0303
17,CTTCGAGCTTGGGTTCTAACCTGTTGCGG (site CTTCGAGCTCA),0.0538
18,CTTCGAGCTTGGGTTCTAACCTGTTGCGG (site CTTCGAGCTCC),0.98
19,CTTCGAGCTTGGGTTCTAACCTGTTGCGG (site CTTCGAGCTCG),0.027
20,CTTCGAGCTTGGGTTCTAACCTGTTGCGG (site CTTCGAGCTCT),0.658
21,CTTCGTACTTGGGTTCTAACCTGTTGCCA (site CTCCGTACTCG),0.126
22,CTTCGTACTTGGGTTCTAACCTGTTGCCA (site CTTCGTACTTG),0.213

row,Sequence,recombinant barcode read abundance (log10)
1,CTTCGTCCTTGGGTTCTAACCTGTTGCCT (site CTTCGTCCTAA),0.132
2,CTTCGTCCTTGGGTTCTAACCTGTTGCCT (site CTTCGTCCTAC),0.0309
3,CTTCGTCCTTGGGTTCTAACCTGTTGCCT (site CTTCGTCCTAG),0.804
4,CTTCGTCCTTGGGTTCTAACCTGTTGCCT (site CTTCGTCCTAT),0.0799
5,CTTCGTCCTTGGGTTCTAACCTGTTGCTT (site CTTCGTCCTAA),0.206
6,CTTCGTCCTTGGGTTCTAACCTGTTGCTT (site CTTCGTCCTAC),0.68
7,CTTCGTCCTTGGGTTCTAACCTGTTGCTT (site CTTCGTCCTAG),0.0453
8,CTTCGTCCTTGGGTTCTAACCTGTTGCTT (site CTTCGTCCTAT),0.541
9,CTTGACACTTGGGTTCTAACCTGTTGCCT (site CTAGACACTAG),1.2
10,CTTGACACTTGGGTTCTAACCTGTTGCCT (site CTCGACACTAG),0.401
11,CTTGACACTTGGGTTCTAACCTGTTGCCT (site CTGGACACTAG),0.236
12,CTTGACACTTGGGTTCTAACCTGTTGCCT (site CTTGACACTAG),2.07
13,CTTGGAGCTTGGGTTCTAACCTGTTGCCT (site CTTGGAACTAG),0.365
14,CTTGGAGCTTGGGTTCTAACCTGTTGCCT (site CTTGGACCTAG),0.247
15,CTTGGAGCTTGGGTTCTAACCTGTTGCCT (site CTTGGAGCTAG),1.61
16,CTTGGAGCTTGGGTTCTAACCTGTTGCCT (site CTTGGATCTAG),0.145
17,CTTGGGTCTTGGGTTCTAACCTGTTGCAT (site CTTGGGTCTAT),2.72
18,CTTGGGTCTTGGGTTCTAACCTGTTGCAT (site TCCCATACTTC),0.0573
19,CTTGGTTCTTGGGTTCTAACCTGTTGCTT (site CTGGGTCCTAA),0.0304
20,CTTGGTTCTTGGGTTCTAACCTGTTGCTT (site CTTGGTTCTAA),0.809
21,GAAAACACTTGGGTTCTAACCTGTTGCCT (site GAAAACACTAG),1.18
22,GAAAACACTTGGGTTCTAACCTGTTGCCT (site GAAGAGACTAG),0.0433

row,Sequence,recombinant barcode read abundance (log10)
1,GAAAAGGCTTGGGTTCTAACCTGTTGCCT (site GAAAAGGCTAG),0.804
2,GAAAAGGCTTGGGTTCTAACCTGTTGCCT (site GAAACGGCTAG),0.105
3,GAAAAGGCTTGGGTTCTAACCTGTTGCCT (site GAAAGGGCTAG),0.0324
4,GAAAAGGCTTGGGTTCTAACCTGTTGCCT (site GAAATGGCTAG),0.206
5,GAAACGTCTTGGGTTCTAACCTGTTGCCT (site GAAACGTCTAG),1.65
6,GAAACGTCTTGGGTTCTAACCTGTTGCCT (site GACAAGTCTAG),0.0765
7,GAAACTCCTTGGGTTCTAACCTGTTGCCT (site GAAAATCCTAG),0.13
8,GAAACTCCTTGGGTTCTAACCTGTTGCCT (site GAAACTCCTAG),0.352
9,GAAACTCCTTGGGTTCTAACCTGTTGCCT (site GAAAGTCCTAG),0.235
10,GAAACTCCTTGGGTTCTAACCTGTTGCCT (site GAAATTCCTAG),0.0462
11,GAAATGACTTGGGTTCTAACCTGTTGCCT (site GAAATGACTAG),0.908
12,GAAATGACTTGGGTTCTAACCTGTTGCCT (site GCAATGACTAG),0.152
13,GAAATGACTTGGGTTCTAACCTGTTGCCT (site GGAATGACTAG),0.066
14,GAAATGACTTGGGTTCTAACCTGTTGCCT (site GTAATGACTAG),0.202
15,GAACCTTCTTGGGTTCTAACCTGTTGCGG (site GAACCTTCTCC),0.93
16,GAACCTTCTTGGGTTCTAACCTGTTGCGG (site TTCTACACTAT),0.0281
17,GAACGACCTTGGGTTCTAACCTGTTGCCT (site AAACGACCTAG),0.331
18,GAACGACCTTGGGTTCTAACCTGTTGCCT (site CAACGACCTAG),0.0122
19,GAACGACCTTGGGTTCTAACCTGTTGCCT (site GAACGACCTAG),0.721
20,GAACGACCTTGGGTTCTAACCTGTTGCCT (site TAACGACCTAG),0.144
21,GAACTCCCTTGGGTTCTAACCTGTTGCGG (site GAACTCCCTCC),0.758
22,GAACTCCCTTGGGTTCTAACCTGTTGCGG (site TGTTGGTCTAA),0.0984

row,Sequence,recombinant barcode read abundance (log10)
1,GAACTCTCTTGGGTTCTAACCTGTTGCTA (site CCTAAAACTAG),0.0469
2,GAACTCTCTTGGGTTCTAACCTGTTGCTA (site GAACTCTCTTA),1.66
3,GAACTGTCTTGGGTTCTAACCTGTTGCCA (site GAACTGTCTTG),0.995
4,GAACTGTCTTGGGTTCTAACCTGTTGCCA (site GTACTCTCTTG),0.0913
5,GAAGAGCCTTGGGTTCTAACCTGTTGCCT (site GAAGAGCCTAG),2.62
6,GAAGAGCCTTGGGTTCTAACCTGTTGCCT (site GAAGCGCCTAG),0.189
7,GAAGAGCCTTGGGTTCTAACCTGTTGCCT (site GAAGGGCCTAG),0.0404
8,GAAGAGCCTTGGGTTCTAACCTGTTGCCT (site GAAGTGCCTAG),0.0759
9,GAAGAGGCTTGGGTTCTAACCTGTTGCCA (site GAAGAGGCTTG),0.536
10,GAAGAGGCTTGGGTTCTAACCTGTTGCCA (site TGTCTCCCTAC),0.115
11,GAAGCCGCTTGGGTTCTAACCTGTTGCCT (site GAAGACGCTAG),0.0292
12,GAAGCCGCTTGGGTTCTAACCTGTTGCCT (site GAAGCCGCTAG),2.26
13,GAAGCCGCTTGGGTTCTAACCTGTTGCCT (site GAAGGCGCTAG),0.16
14,GAAGCCGCTTGGGTTCTAACCTGTTGCCT (site GAAGTCGCTAG),0.302
15,GAAGGAGCTTGGGTTCTAACCTGTTGCAG (site ATGCCTCCTAA),0.0306
16,GAAGGAGCTTGGGTTCTAACCTGTTGCAG (site GAAGGAGCTCT),1.51
17,GAAGGGACTTGGGTTCTAACCTGTTGCCT (site GAAGGGACTAG),2.11
18,GAAGGGACTTGGGTTCTAACCTGTTGCCT (site GCAGGGACTAG),0.236
19,GAAGGGACTTGGGTTCTAACCTGTTGCCT (site GGAGGGACTAG),0.585
20,GAAGGGACTTGGGTTCTAACCTGTTGCCT (site GTAGGGACTAG),1.52
